This is an account of results in patent publication US9587471B2, “Controlling bioavailability of nutrient additions in subsurface formations” (E I DU PONT DE NEMOURS AND COMPANY, priority 2008, dated 2017).

Series [1] can be described thus: Partition coefficient in an oil/water system. It is filed as physicochemical. On the procedure:
In this Example a contribution to inhibitor dissipation made by adsorption of the inhibitor into the oil phase may be observed. For example, nitrate as a nitrogen source and electron acceptor and glucose as a growth substrate, each at 25 g/L concentration, may be added in combination to the injection water stream. In addition, benzalkonium chloride may be added to the inhibited nutrient composition. The composition may be pumped into the oil well formation for 5 hours. The industrial biocide inhibits growth of microbial populations in the oil well formation independent of the added nutrient concentrations. As illustrated in Example 2 until the benzalkonium chloride reaches a concentration of <0.1 g/L, microbial growth is inhibited. Using physical parameters common in oil well formations found in unconsolidated sandstone regions of the North Slope, dispersion modeling determines that it will take approximately fourteen days for flow dispersion to dilute benzalkonium chloride to approximately <0.1 g/L. In addition, it may be empirically determined, through laboratory experimentation, that the partition coefficient for benzalkonium chloride in an oil/water system is approximately 10. Therefore, rather than adding benzalkonium chloride at 2% concentration based on dispersion modeling, it is added at a 10% initial concentration to counter act losses due to adsorption. […]

Series [2] relates to Pseudomonas stutzeri strain LH4:15 (ATCC PTA-8823). Kind of series: Aerobic growth response (turbidity) to varying concentrations of industrial preservatives.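 As to growth (turbidity): single plus means slight turbidity.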 It is filed as cell-based. The protocol:
Typically cells were grown at a temperature in the range of about 25° C. to about 40° C. in an appropriate medium.
Pseudomonas stutzeri strain LH4:15 (ATCC PTA-8823) was grown as outlined in Example 1. Various preservatives commonly used in the food, cosmetic, and water treatment industries were tested for their inhibitory effect at various concentrations (Table 2). Growth was monitored visually and positive growth was indicated by moderate to heavy turbidity.

Series [3] shares this test system. Kind of series: Anaerobic growth and survival: biocidal versus biostatic inhibition. The following applies: for change in Log cell number: day 0 vs day 7, anaerobic; for Final anaerobic vial OD: starting OD600 = 0.05. The class given is cell-based. On the procedure: In this invention, the anaerobic growth and survival was tested in 20 ml crimp-capped anaerobic vials, using a complete nutrient medium of the following composition: Na2HPO4.7H2O, 1.4 g/L, KH2PO4, 0.69 g/L, NH4Cl, 0.5 g/L, MgSO4.7H2O, 0.1/L g, SL-10 trace metals, 10 ml, NaCl, 7.5 g/L, NaHCO3, 7.2 g/L, sodium nitrate, 12 g/L, Na lactate, 7 g/L, yeast extract, 10 mg/L, pH 7.3-7.8.
The anaerobic growth and survival was tested as outlined above. […] Vials were inoculated using an overnight aerobic culture of Pseudomonas stutzeri strain LH4:15 (ATCC PTA-8823) in Luria Bertani medium (LB, Mediatech Inc., Herndon, Va.,) at a final OD600 of 0.05. Within 2 hours of inoculation, serial dilutions from each treatment vial were made into aerobic LB medium to determine the cell numbers at Day 0. After approximately 24 hours cell numbers were estimated by noting the highest positive dilution based on the presence or absence of turbidity in dilutions of 10^−1 to 10^−11 in the serial dilution plates. Cell numbers on Day 0 and Day 7 were measured to obtain a survival estimate during inhibitor exposure.

As to Benzalkonium chloride, the partition coefficient entry in series [1] is listed as “approximately 10”. Also, the “growth (turbidity)” value in series [2] (0.0001 g/L) is on record as “++”; in series [2] (0.001 g/L), “++”; in series [2] (0.005 g/L) it was “++”; in series [2] (0.01 g/L), “++”; in series [2] (0.1 g/L) it was “−”; in series [2] (0.5 g/L), “−”. In addition, the “growth (turbidity)” value in series [2] (1 g/L) was “−”. In addition, the “concentration that must be reached before inhibition of microbial growth ends” value in series [2] (stated 'as illustrated in Example 2') was less than 0.1 g/L. Further, the “change in Log cell number” value is on record as 0 in series [3] (0.01 g/L); 0 in series [3] (0.04 g/L); −4 in series [3] (0.08 g/L); “Dead” in series [3] (0.1 g/L); “Dead” in series [3] (0.5 g/L); “Dead” in series [3] (1 g/L). Moreover, the “Final anaerobic vial OD” value in series [3] (0.01 g/L) was 0.12; in series [3] (0.04 g/L), 0.01; in series [3] (0.08 g/L), 0.02; in series [3] (0.1 g/L), 0.02; in series [3] (0.5 g/L), 0.06; in series [3] (1 g/L) it was 0.32. Further, the “concentration that killed the cells on Day 0” value in series [3] (anaerobic vials) is reported as not below 0.1 g/L.
